Like-named read-outs stand apart in the source and are kept apart here.
What was measured:
[1] = biological target: T1, non-phosphorylated c-ABL kinase domain (Homo sapiens, UniProt P00519); assay: KinomeScan in vitro binding affinity (Kd), non-phosphorylated c-ABL kinase domain
T1 construct: phosphorylated and non-phosphorylated c-ABL kinase domain; purchased DiscoverRx Corporation (KinomeScan platform)
T1 sequence (P00519 242-493 limits assumed): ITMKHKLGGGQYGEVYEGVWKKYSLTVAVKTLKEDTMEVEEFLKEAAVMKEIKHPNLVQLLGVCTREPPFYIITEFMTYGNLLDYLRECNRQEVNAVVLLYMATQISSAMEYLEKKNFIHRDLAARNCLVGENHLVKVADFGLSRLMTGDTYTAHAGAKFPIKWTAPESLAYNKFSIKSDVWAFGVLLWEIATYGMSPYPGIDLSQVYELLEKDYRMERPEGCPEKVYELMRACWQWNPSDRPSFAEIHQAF
Method: (§1) PROTAC in vitro binding affinities (Kd) to phosphorylated and non-phosphorylated c-ABL kinase domain were determined using the KinomeScan platform (DiscoverRx Corporation). The compounds were solubilized in DMSO and sent to DiscoverRx Corporation as a 10 μM stock solution.

[2] = biological target: T2, phosphorylated c-ABL kinase domain (Homo sapiens, UniProt P00519); assay: KinomeScan in vitro binding affinity (Kd), phosphorylated c-ABL kinase domain
T2 construct: phosphorylated and non-phosphorylated c-ABL kinase domain; purchased DiscoverRx Corporation (KinomeScan platform)
T2 sequence (P00519 242-493 limits assumed): T1 sequence (P00519 242-493 limits assumed)
Method: as §1

[3] = Table 2, read-out: ABL (non-phosphorylated)
[4] = Table 2, read-out: ABL (phosphorylated)
[5] = Table 1, ABL kinase domain, read-out: ABL (non-phosphorylated) affinity
[6] = Table 1, ABL kinase domain, read-out: ABL (phosphorylated) affinity

Compound	Kd [1, 3] [nM]	Kd [2, 4] [nM]	Kd [1, 5] [nM]	Kd [2, 6] [nM]
COc1cc(Nc2c(C#N)cnc3cc(OCCCN4CCN(CCCCCCOCCOCCOCCCCCC(=O)Nc5cccc6c5C(=O)N(C5CCC(=O)NC5=O)C6=O)CC4)c(OC)cc23)c(Cl)cc1Cl (stereo not shown) [BOS-6-2-2-6-CRBN, 6-(2-(2-((6-(4-(3-((3-cyano-4-((2,4-dichloro-5-methoxyphenyl)amino)-6-methoxyquinolin-7-yl)oxy)propyl)piperazin-1-yl)hexyl)oxy)ethoxy)ethoxy)-N-(2-(2,6-dioxopiperidin-3-yl)-1,3-dioxoisoindolin-4-yl)hexanamide]	0.91	0.55		
COc1cc(Nc2c(C#N)cnc3cc(OCCCN4CCN(CCCCCCOCCOCCOCCCCCC(=O)N[C@H](C(=O)N5C[C@H](O)C[C@H]5C(=O)NCc5ccc(-c6scnc6C)cc5)C(C)(C)C)CC4)c(OC)cc23)c(Cl)cc1Cl [BOS-6-2-2-6-VHL, (2S,4R)-1-((S)-2-(tert-butyl)-22-(4-(3-((3-cyano-4-((2,4-dichloro-5-methoxyphenyl)amino)-6-methoxyquinolin-7-yl)oxy)propyl)piperazin-1-yl)-4-oxo-10,13,16-trioxa-3-azadocosanoyl)-4-hydroxy-N-(4-(4-methylthiazol-5-yl)benzyl)pyrrolidine-2-carboxamide]			1.4	0.63
COc1cc(Nc2c(C#N)cnc3cc(OCCCN4CCN(CCCCCCOCCCCCOCCCCCC(=O)Nc5cccc6c5C(=O)N(C5CCC(=O)NC5=O)C6=O)CC4)c(OC)cc23)c(Cl)cc1Cl (stereo not shown) [BOS-6-5-6-CRBN, 6-((5-((6-(4-(3-((3-cyano-4-((2,4-dichloro-5-methoxyphenyl)amino)-6-methoxyquinolin-7-yl)oxy)propyl)piperazin-1-yl)hexyl)oxy)pentyl)oxy)-N-(2-(2,6-dioxopiperidin-3-yl)-1,3-dioxoisoindolin-4-yl)hexanamide]	2.8	1.1		
COc1cc(Nc2c(C#N)cnc3cc(OCCCN4CCN(CCCCCCOCCCCCOCCCCCC(=O)N[C@H](C(=O)N5C[C@H](O)C[C@H]5C(=O)NCc5ccc(-c6scnc6C)cc5)C(C)(C)C)CC4)c(OC)cc23)c(Cl)cc1Cl [BOS-6-5-6-VHL, (2S,4R)-1-((S)-2-(6-((5-((6-(4-(3-((3-cyano-4-((2,4-dichloro-5-methoxyphenyl)amino)-6-methoxyquinolin-7-yl)oxy)propyl)piperazin-1-yl)hexyl)oxy)pentyl)oxy)hexanamido)-3,3-dimethylbutanoyl)-4-hydroxy-N-(4-(4-methylthiazol-5-yl)benzyl)pyrrolidine-2-carboxamide]	4.6	1.5		
Cc1nc(Nc2ncc(C(=O)Nc3c(C)cccc3Cl)s2)cc(N2CCN(CCCCCCOCCOCC(=O)Nc3cccc4c3C(=O)N(C3CCC(=O)NC3=O)C4=O)CC2)n1 (stereo not shown) [DAS-6-2-2-CRBN, N-(2-chloro-6-methylphenyl)-2-((6-(4-(6-(2-(2-((2-(2,6-dioxopiperidin-3-yl)-1,3-dioxoisoindolin-4-yl)amino)-2-oxoethoxy)ethoxy)hexyl)piperazin-1-yl)-2-methylpyrimidin-4-yl)amino)thiazole-5-carboxamide]	0.28	0.19		
Cc1nc(Nc2ncc(C(=O)Nc3c(C)cccc3Cl)s2)cc(N2CCN(CCCCCCOCCCCCOCCCCCC(=O)Nc3cccc4c3C(=O)N(C3CCC(=O)NC3=O)C4=O)CC2)n1 (stereo not shown) [DAS-6-5-6-CRBN, N-(2-chloro-6-methylphenyl)-2-((6-(4-(6-((5-((6-((2-(2,6-dioxopiperidin-3-yl)-1,3-dioxoisoindolin-4-yl)amino)-6-oxohexyl)oxy)pentyl)oxy)hexyl)piperazin-1-yl)-2-methylpyrimidin-4-yl)amino)thiazole-5-carboxamide]	1.3	1.4		
Cc1ccc(NC(=O)c2ccc(CN3CCN(CCCCCCOCCOCCOCCCCCC(=O)Nc4cccc5c4C(=O)N(C4CCC(=O)NC4=O)C5=O)CC3)cc2)cc1Nc1nccc(-c2cccnc2)n1 (stereo not shown) [IMA-6-2-2-6-CRBN, 4-((4-(6-(2-(2-((6-((2-(2,6-dioxopiperidin-3-yl)-1,3-dioxoisoindolin-4-yl)amino)-6-oxohexyl)oxy)ethoxy)ethoxy)hexyl)piperazin-1-yl)methyl)-N-(4-methyl-3-((4-(pyridin-3-yl)pyrimidin-2-yl)amino)phenyl)benzamide]			6.2	110
Cc1ccc(NC(=O)c2ccc(CN3CCN(CCCCCCOCCOCCOCCCCCC(=O)N[C@H](C(=O)N4C[C@H](O)C[C@H]4C(=O)NCc4ccc(-c5scnc5C)cc4)C(C)(C)C)CC3)cc2)cc1Nc1nccc(-c2cccnc2)n1 [IMA-6-2-2-6-VHL, (2S,4R)-1-((S)-2-(tert-butyl)-22-(4-(4-((4-methyl-3-((4-(pyridin-3-yl)pyrimidin-2-yl)amino)phenyl)carbamoyl)benzyl)piperazin-1-yl)-4-oxo-10,13,16-trioxa-3-azadocosanoyl)-4-hydroxy-N-(4-(4-methylthiazol-5-yl)benzyl)pyrrolidine-2-carboxamide]			4.3	93
Cc1ccc(NC(=O)c2ccc(CN3CCN(CCCCCCOCCOCC(=O)Nc4cccc5c4C(=O)N(C4CCC(=O)NC4=O)C5=O)CC3)cc2)cc1Nc1nccc(-c2cccnc2)n1 (stereo not shown) [IMA-6-2-2-CRBN, 4-((4-(6-(2-(2-((2-(2,6-dioxopiperidin-3-yl)-1,3-dioxoisoindolin-4-yl)amino)-2-oxoethoxy)ethoxy)hexyl)piperazin-1-yl)methyl)-N-(4-methyl-3-((4-(pyridin-3-yl)pyrimidin-2-yl)amino)phenyl)benzamide]	4.7	72		
Cc1ccc(NC(=O)c2ccc(CN3CCN(CCCCCCOCCOCC(=O)N[C@H](C(=O)N4C[C@H](O)C[C@H]4C(=O)NCc4ccc(-c5scnc5C)cc4)C(C)(C)C)CC3)cc2)cc1Nc1nccc(-c2cccnc2)n1 [IMA-6-2-2-VHL, (2S,4R)-1-((S)-3,3-dimethyl-2-(2-(2-((6-(4-(4-((4-methyl-3-((4-(pyridin-3-yl)pyrimidin-2-yl)amino)phenyl)carbamoyl)benzyl)piperazin-1-yl)hexyl)oxy)ethoxy)acetamido)butanoyl)-4-hydroxy-N-(4-(4-methylthiazol-5-yl)benzyl)pyrrolidine-2-carboxamide]	5.8	98		
Cc1ccc(NC(=O)c2ccc(CN3CCN(CCCCCCOCCCCCOCCCCCC(=O)Nc4cccc5c4C(=O)N(C4CCC(=O)NC4=O)C5=O)CC3)cc2)cc1Nc1nccc(-c2cccnc2)n1 (stereo not shown) [IMA-6-5-6-CRBN, 4-((4-(6-((5-((6-((2-(2,6-dioxopiperidin-3-yl)-1,3-dioxoisoindolin-4-yl)amino)-6-oxohexyl)oxy)pentyl)oxy)hexyl)piperazin-1-yl)methyl)-N-(4-methyl-3-((4-(pyridin-3-yl)pyrimidin-2-yl)amino)phenyl)benzamide]	24	360		
Cc1ccc(NC(=O)c2ccc(CN3CCN(CCCCCCOCCCCCOCCCCCC(=O)N[C@H](C(=O)N4C[C@H](O)C[C@H]4C(=O)NCc4ccc(-c5scnc5C)cc4)C(C)(C)C)CC3)cc2)cc1Nc1nccc(-c2cccnc2)n1 [IMA-6-5-6-VHL, (2S,4R)-1-((S)-3,3-dimethyl-2-(6-((5-((6-(4-(4-((4-methyl-3-((4-(pyridin-3-yl)pyrimidin-2-yl)amino)phenyl)carbamoyl)benzyl)piperazin-1-yl)hexyl)oxy)pentyl)oxy)hexanamido)butanoyl)-4-hydroxy-N-(4-(4-methylthiazol-5-yl)benzyl)pyrrolidine-2-carboxamide]	19	46		
Cc1ccc(NC(=O)c2ccc(CN3CCN(CCCCCCOCCOCCOCCOCCOCCOCC(=O)Nc4cccc5c4C(=O)N(C4CCC(=O)NC4=O)C5=O)CC3)cc2)cc1Nc1nccc(-c2cccnc2)n1 (stereo not shown) [IMA-6-(2-)5-2-CRBN, N-(2-(2,6-dioxopiperidin-3-yl)-1,3-dioxoisoindolin-4-yl)-24-(4-(4-((4-methyl-3-((4-(pyridin-3-yl)pyrimidin-2-yl)amino)phenyl)carbamoyl)benzyl)piperazin-1-yl)-3,6,9,12,15,18-hexaoxatetracosanamide]	3	84		
Cc1ccc(NC(=O)c2ccc(CN3CCN(CCCCCCOCCOCCOCCOCCOCCOCC(=O)N[C@H](C(=O)N4C[C@H](O)C[C@H]4C(=O)NCc4ccc(-c5scnc5C)cc4)C(C)(C)C)CC3)cc2)cc1Nc1nccc(-c2cccnc2)n1 [IMA-6-(2-)5-2-VHL, (2S,4R)-1-((S)-2-(tert-butyl)-27-(4-(4-((4-methyl-3-((4-(pyridin-3-yl)pyrimidin-2-yl)amino)phenyl)carbamoyl)benzyl)piperazin-1-yl)-4-oxo-6,9,12,15,18,21-hexaoxa-3-azaheptacosanoyl)-4-hydroxy-N-(4-(4-methylthiazol-5-yl)benzyl)pyrrolidine-2-carboxamide]	1.7	35		
